In patent publication US20250228761A1, “COMPOSITION COMPRISING A SURFACE-REACTED CALCIUM CARBONATE AND A TANNIN” (Omya International AG, priority 2021, published 2025):

Experiment: In vitro measurement of antiperspirant effect (SOD4 device, Smart-Pore microchannels)
Conditions: 80% hygrometry, 2 mg/cm^2 dose
Experimental: In vitro measurement of antiperspirant activity was measured with an SOD4 device from Microfactory, France. The SOD4 device is an automated biomimetic system that imitates the sweating process. The device comprises (1) Smart-Pore™: a silicone microfluidic chip containing microchannels which mimic skin pores (number of pores per chip: 4; dimensions of the pores: 60 μm×60 μm×2 mm; material: polydimethylsiloxane); (2) a pressure system controlling the flow of sweat in the pores down to nanoliter volumes; (3) a climate chamber regulated in humidity/temperature to reproduce perspiration conditions; (4) an optical system to monitor and record the interaction between the antiperspirant and artificial sweat.
Known antiperspirants block sweat pores thereby reducing sweating of a subject. The blocking is caused by a precipitate or clot in the sweat pore which is formed by interaction of the antiperspirant with components of sweat. The SOD4 device mimics this process and allows for analyzing the interaction of an antiperspirant sample and artificial sweat in the microfluidic channel. The analysis includes, e.g. detection of precipitate/clot formation, measuring precipitate/clot formation time, and measuring pressure (bursting pressure) which is necessary for removing the precipitate/clot from the microchannel. […]

Substance: Aluminium chlorohydrate [Sample 4]
- Burst pressure (mbar)* (average of the maximal pressure applied before unclogging of precipitate/clot from the microchannel, after one hour interaction with artificial sweat at 25° C.): 699 +/− 34 mbar
- Clot formation time (average over all observed clots, artificial sweat, 25° C.): 2047 s
